# Laboratory results as given in patent US20180002288A1, “USE OF PICOLINAMIDES AS FUNGICIDES” (DOW AGROSCIENCES LLC, priority 2014, published 2018).
# Where two headings read alike, the source gives them in different places.
# Columns and labels:
# [1] = system: Rhyncosporium secalis; assay: Barley Scald fungicidal activity (RHYNSE); assay type: in vivo; conditions: Hordeum vulgare, 24 h, high volume, 1 Day Protectant, read-out: RHYNSE % Control rating
# Method: All fungicides were evaluated using the aforementioned method for their activity vs. all target diseases, unless stated otherwise. Wheat leaf blotch and brown rust activity were also evaluated using track spray applications, in which case the fungicides were formulated as EC formulations, containing 0.1% Trycol 5941 in the spray solutions. Wheat plants (variety Yuma) were grown from seed in a greenhouse in 50% mineral soil/50% soil-less Metro mix until the first leaf was fully emerged, with 7-10 seedlings per pot. These plants were inoculated with an aqueous spore suspension of Zymoseptoria tritici either prior to or after fungicide treatments. After inoculation the plants were kept in 100% relative humidity (one day in a dark dew chamber followed by two to three days in a lighted dew chamber at 20° C.) to permit spores to germinate and infect the leaf. The plants were then transferred to a greenhouse set at 20° C. for disease to develop. When disease symptoms were fully expressed on the 1st leaves of untreated plants, infection levels were assessed on a scale of 0 to 100 percent disease severity. Percent disease control was calculated using the ratio of disease severity on treated plants relative to untreated plants. Barley seedlings (variety Harrington) were propagated in soil-less Metro mix, with each pot having 8 to 12 plants, and used in the test when first leaf was fully emerged. Test plants were inoculated by an aqueous spore suspension of Rhyncosporium secalis 24 hr after fungicide treatments. After inoculation the plants were kept in a dew room at 22° C. with 100% relative humidity for 48 hr. The plants were then transferred to a greenhouse set at 20° C. for disease to develop. Fungicide formulation, application and disease assessment on the sprayed leaves followed the procedures as described in the Example A.
# [2] = system: Leptosphaeria nodorum; assay: Wheat Glume Blotch fungicidal activity (LEPTNO); assay type: in vivo; conditions: Parastagonospora nodorum, 24 h, high volume, 1 Day Protectant, read-out: LEPTNO % Control rating
# Method: All fungicides were evaluated using the aforementioned method for their activity vs. all target diseases, unless stated otherwise. Wheat leaf blotch and brown rust activity were also evaluated using track spray applications, in which case the fungicides were formulated as EC formulations, containing 0.1% Trycol 5941 in the spray solutions. Wheat plants (variety Yuma) were grown from seed in a greenhouse in 50% mineral soil/50% soil-less Metro mix until the first leaf was fully emerged, with 7-10 seedlings per pot. These plants were inoculated with an aqueous spore suspension of Zymoseptoria tritici either prior to or after fungicide treatments. After inoculation the plants were kept in 100% relative humidity (one day in a dark dew chamber followed by two to three days in a lighted dew chamber at 20° C.) to permit spores to germinate and infect the leaf. The plants were then transferred to a greenhouse set at 20° C. for disease to develop. When disease symptoms were fully expressed on the 1st leaves of untreated plants, infection levels were assessed on a scale of 0 to 100 percent disease severity. Percent disease control was calculated using the ratio of disease severity on treated plants relative to untreated plants. Wheat plants (variety Yuma) were grown from seed in a greenhouse in 50% mineral soil/50% soil-less Metro mix until the first leaf was fully emerged, with 7-10 seedlings per pot. These plants were inoculated with an aqueous spore suspension of Leptosphaeria nodorum 24 hr after fungicide treatments. After inoculation the plants were kept in 100% relative humidity (one day in a dark dew chamber followed by two days in a lighted dew chamber at 20° C.) to permit spores to germinate and infect the leaf. The plants were then transferred to a greenhouse set at 20° C. for disease to develop. Fungicide formulation, application and disease assessment followed the procedures as described in the Example A.
# [3] = system: Puccinia triticina; assay: Wheat Brown Rust fungicidal activity (PUCCRT); assay type: in vivo; conditions: Low Volume Cereal Activity at 121.5 g/Ha
# [4] = system: Alternaria solani; assay: Tomato Early Blight fungicidal activity (ALTESO); assay type: in vivo; conditions: 24 h, high volume, 1 Day Protectant, read-out: ALTESO % Control rating
# Method: All fungicides were evaluated using the aforementioned method for their activity vs. all target diseases, unless stated otherwise. Wheat leaf blotch and brown rust activity were also evaluated using track spray applications, in which case the fungicides were formulated as EC formulations, containing 0.1% Trycol 5941 in the spray solutions. Wheat plants (variety Yuma) were grown from seed in a greenhouse in 50% mineral soil/50% soil-less Metro mix until the first leaf was fully emerged, with 7-10 seedlings per pot. These plants were inoculated with an aqueous spore suspension of Zymoseptoria tritici either prior to or after fungicide treatments. After inoculation the plants were kept in 100% relative humidity (one day in a dark dew chamber followed by two to three days in a lighted dew chamber at 20° C.) to permit spores to germinate and infect the leaf. The plants were then transferred to a greenhouse set at 20° C. for disease to develop. When disease symptoms were fully expressed on the 1st leaves of untreated plants, infection levels were assessed on a scale of 0 to 100 percent disease severity. Percent disease control was calculated using the ratio of disease severity on treated plants relative to untreated plants. Tomato plants (variety Outdoor Girl) were propagated in soil-less Metro mix, with each pot having one plant, and used when 12 to 14 days old. Test plants were inoculated with an aqueous spore suspension of Alternaria solani 24 hr after fungicide treatments. After inoculation the plants were kept in a dew room at 22° C. with 100% relative humidity for 48 hr to permit spores to germinate and infect the leaf. The plants were then transferred to a growth room at 22° C. for disease to develop. Fungicide formulation, application and disease assessment on the sprayed leaves followed the procedures as described in the Example A.
# [5] = system: Phakopsora pachyrhizi; assay: Asian Soybean Rust fungicidal activity (PHAKPA); conditions: Phakopsora pachyrhizi, in Glycine max
# [6] = 24 h, 1 Day Protectant, read-out: PUCCRT 1DP (Wheat Brown Rust, 1 Day Protectant)
# [7] = 72 h, 3 Day Curative, read-out: PUCCRT 3DC (Wheat Brown Rust, 3 Day Curative)
# [8] = 24 h, read-out: PHAKPA 1DP % Control rating, soybean, high volume, 25 ppm, 1 Day Protectant
# [9] = 72 h, read-out: PHAKPA 3DC % Control rating, soybean, high volume, 25 ppm, 3 Day Curative
Compound,pest or weed control at 100 ppm [1] [%],pest or weed control at 100 ppm [2] [%],"pest or weed control at 121.5 g/ha [3, 6] [%]","pest or weed control at 121.5 g/ha [3, 7] [%]",pest or weed control at 100 ppm [4] [%],"pest or weed control at 25 ppm [5, 8] [%]","pest or weed control at 25 ppm [5, 9] [%]"
COc1ccnc(C(=O)N[C@@H](C)C(=O)O[C@@H](C)[C@H](Oc2ccccc2)c2ccc3ccccc3c2)c1OCOC(C)=O [Example 263],> 80,> 80,> 80,> 80,< 0,,
COc1ccnc(C(=O)N[C@@H](C)C(=O)O[C@@H](C)[C@H](Oc2ccccc2)c2ccc(F)cc2F)c1OCOC(C)=O [Example 250],< 80,< 0,> 80,> 80,< 0,> 80,< 80
COc1ccnc(C(=O)N[C@@H](C)C(=O)O[C@@H](C)[C@H](Oc2ccccc2)c2ccc(F)cc2Cl)c1OCOC(C)=O [Example 260],> 80,> 80,> 80,> 80,< 0,> 80,< 80
COc1ccnc(C(=O)N[C@@H](C)C(=O)O[C@@H](C)[C@H](Oc2cc(F)cc(Cl)c2)c2ccccc2)c1OC(C)=O [Example 207],> 80,> 80,> 80,< 80,< 0,< 80,< 80
COc1ccnc(C(=O)N[C@@H](C)C(=O)O[C@@H](C)[C@H](Oc2ccccc2)c2ccc(F)cc2C)c1OCOC(C)=O [Example 259],> 80,> 80,> 80,> 80,< 0,> 80,< 0
COc1ccnc(C(=O)N[C@@H](C)C(=O)O[C@@H](C)[C@H](Oc2ccc(F)cc2)c2ccccc2)c1OCOC(C)=O [Example 237],> 80,> 80,> 80,> 80,< 80,< 80,< 80
COc1ccnc(C(=O)N[C@@H](C)C(=O)O[C@@H](C)[C@H](Oc2cccc(F)c2)c2ccccc2)c1OCOC(C)=O [Example 187],> 80,> 80,> 80,> 80,< 80,> 80,< 80
COc1ccnc(C(=O)N[C@@H](C)C(=O)O[C@@H](C)[C@H](Oc2ccccc2)c2ccc(C)cc2)c1OCOC(C)=O [Example 252],> 80,> 80,> 80,> 80,< 0,,
